From PubChem BioAssay AID308 (DTP/NCI, 2004)
Where “and” joins values, the source holds several entries; their conditions need not be identical. Identical values can stand only once. Toxic doses and inconclusive results are not listed.

System: BDF1 mice, L1210 6-MP/6-TG resistant leukemia ip, survival T/C
Experiment: NCI In Vivo Anticancer Drug Screen. Data for tumor model L1210 Leukemia resistant to 6-MP and 6-Thioguanine; NSC 755, NSC 752 (intraperitoneal) in B6D2F1 (BDF1) mice
Details: endpoint: mean survival time, higher = longer survival
Description: The antitumor activity of compounds was measured in mice bearing transplantable tumors. Survival or tumor size were measured and the results are expressed as the measurement made in the treated group (T) divided by the measurement made in the vehicle treated control group (C). The tumor model used in this assay is L1210 Leukemia resistant to 6-MP and 6-Thioguanine; NSC 755, NSC 752 (intraperitoneal) in B6D2F1 (BDF1) mice

[1] = dose: 125.0 mg/kg/injection, schedule: Q01DX Z (ip), vehicle: carboxymethylcellulose (CMC)
[2] = dose: 250.0 mg/kg/injection, schedule: Q01DX Z (ip), vehicle: carboxymethylcellulose (CMC)

For CC/C(=C(/CC)c1ccc(O)cc1)c1ccc(O)cc1, the T/C (dose: 37.5 mg/kg/injection, schedule: Q01DX Z (sc), vehicle: steriod suspending solution) was 90 % of control, the T/C (dose: 50.0 mg/kg/injection, schedule: Q01DX Z (sc), vehicle: steriod suspending solution) was 95 % of control and the T/C (dose: 75.0 mg/kg/injection, schedule: Q01DX Z (sc), vehicle: steriod suspending solution) was 94 % of control. For the same molecule, the T/C (dose: 100.0 mg/kg/injection, schedule: Q01DX Z (sc), vehicle: steriod suspending solution) was 94 % of control.
In the case of O=C(Nc1ccc(C2=NCCCN2)cc1)c1ccc(C(=O)Nc2ccc(C3=NCCCN3)cc2)cc1, the T/C (dose: 0.46 mg/kg/injection, schedule: Q01DX Z (ip), vehicle: carboxymethylcellulose (CMC)) was 106 % of control, the T/C (dose: 1.87 mg/kg/injection, schedule: Q01DX Z (ip), vehicle: carboxymethylcellulose (CMC)) was 178 % of control and the T/C (dose: 3.75 mg/kg/injection, schedule: Q01DX Z (ip), vehicle: carboxymethylcellulose (CMC)) was 154 % of control and 195 % of control. For the same molecule, the T/C (dose: 7.5 mg/kg/injection, schedule: Q01DX Z (ip), vehicle: carboxymethylcellulose (CMC)) was 155 % of control and the T/C (dose: 15.0 mg/kg/injection, schedule: Q01DX Z (ip), vehicle: carboxymethylcellulose (CMC)) was 113 % of control.
In the case of c1ccc(CNc2ncnc3[nH]ncc23)cc1, the T/C (dose: 1.5 mg/kg/injection, schedule: Q01DX Z (ip), vehicle: carboxymethylcellulose (CMC)) was 96 % of control, the T/C (dose: 3.0 mg/kg/injection, schedule: Q01DX Z (ip), vehicle: carboxymethylcellulose (CMC)) was 93 % of control and the T/C (dose: 6.25 mg/kg/injection, schedule: Q01DX Z (ip), vehicle: carboxymethylcellulose (CMC)) was 101 % of control. For the same molecule, the T/C (dose: 12.5 mg/kg/injection, schedule: Q01DX Z (ip), vehicle: carboxymethylcellulose (CMC)) was 88 % of control, the T/C (dose: 25.0 mg/kg/injection, schedule: Q01DX Z (ip), vehicle: carboxymethylcellulose (CMC)) was 92 % of control and the T/C (dose: 50.0 mg/kg/injection, schedule: Q01DX Z (ip), vehicle: carboxymethylcellulose (CMC)) was 93 % of control.
With COS(C)(=O)=O the T/C (dose: 25.0 mg/kg/injection, schedule: Q01DX Z (ip), vehicle: saline) was 105 % of control, the T/C (dose: 50.0 mg/kg/injection, schedule: Q01DX Z (ip), vehicle: saline) was 114 % of control and the T/C (dose: 75.0 mg/kg/injection, schedule: Q01DX Z (ip), vehicle: saline) was 116 % of control. For the same molecule, the T/C (dose: 100.0 mg/kg/injection, schedule: Q01DX Z (ip), vehicle: saline) was 106 % of control.
CS(=O)(=O)OCC(O)C(O)COS(C)(=O)=O (stereo not given) was tested, and the T/C (dose: 62.0 mg/kg/injection, schedule: Q01DX Z (ip), vehicle: carboxymethylcellulose (CMC)) was 103 % of control, the T/C [1] was 101 % of control and the T/C [2] was 122 % of control.
For O=c1cnn(C2OC(CO)C(O)C2O)c(=O)[nH]1 (stereo not given), the T/C (dose: 62.5 mg/kg/injection, schedule: Q01DX Z (ip), vehicle: saline) was 115 % of control, the T/C (dose: 500.0 mg/kg/injection, schedule: Q01DX Z (ip), vehicle: saline) was 120 % of control and the T/C (dose: 750.0 mg/kg/injection, schedule: Q01DX Z (ip), vehicle: saline) was 110 % of control. For the same molecule, the T/C (dose: 1000.0 mg/kg/injection, schedule: Q01DX Z (ip), vehicle: saline) was 109 % of control.
With CCn1cnc2c(SC3CCCC3)ncnc21 the T/C [1] was 98 % of control and the T/C [2] was 98 % of control.
For C[C@H]1C(=O)O[C@@H]2CCN3CC=C(COC(=O)[C@](C)(O)[C@@]1(C)O)[C@H]23, the T/C (dose: 37.5 mg/kg/injection, schedule: Q01DX Z (ip), vehicle: carboxymethylcellulose (CMC)) was 91 % of control, the T/C (dose: 75.0 mg/kg/injection, schedule: Q01DX Z (ip), vehicle: carboxymethylcellulose (CMC)) was 110 % of control and the T/C (dose: 150.0 mg/kg/injection, schedule: Q01DX Z (ip), vehicle: carboxymethylcellulose (CMC)) was 107 % of control. For the same molecule, the T/C (dose: 300.0 mg/kg/injection, schedule: Q01DX Z (ip), vehicle: carboxymethylcellulose (CMC)) was 104 % of control.
Nc1nc(=S)c2[nH]cnc2[nH]1 was tested, and the T/C (dose: 0.37 mg/kg/injection, schedule: Q01DX Z (ip), vehicle: carboxymethylcellulose (CMC)) was 123 % of control, the T/C (dose: 0.5 mg/kg/injection, schedule: Q01DX Z (ip), vehicle: carboxymethylcellulose (CMC)) was 92 % of control and the T/C (dose: 0.75 mg/kg/injection, schedule: Q01DX Z (ip), vehicle: carboxymethylcellulose (CMC)) was 101 % of control. The T/C (dose: 1.0 mg/kg/injection, schedule: Q01DX Z (ip), vehicle: carboxymethylcellulose (CMC)) was 103 % of control, the T/C (dose: 1.25 mg/kg/injection, schedule: Q01DX Z (ip), vehicle: carboxymethylcellulose (CMC)) was 104 % of control and the T/C (dose: 2.5 mg/kg/injection, schedule: Q01DX Z (ip), vehicle: carboxymethylcellulose (CMC)) was 95 % of control.
In the case of COc1cc2c(c3c1c(=O)c1ccccc1n3C)C=CC(C)(C)O2, the T/C (dose: 20.0 mg/kg/injection, schedule: Q01DX015 (ip), vehicle: carboxymethylcellulose (CMC)) was 106 % of control and the T/C (dose: 40.0 mg/kg/injection, schedule: Q01DX015 (ip), vehicle: carboxymethylcellulose (CMC)) was 116 % of control.
